Earlier results, collected in PMC5427923, “A novel CCR2 antagonist inhibits atherogenesis in apoE deficient mice by achieving high receptor occupancy” (Scientific Reports, 2017).

Tests used:
[1] = tested on: hCCR2b; conditions: hCCR2; ref Vilums et al. [24]; cited from earlier work
[2] = tested on: CCR2; design: method as in PMID 16210643; conditions: single oral dose of 50 mg/kg, mice; ref [35]; cited from earlier work
[3] = tested on: apoE−/− mice; design: method as in Aiello et al. [11]; conditions: ref Aiello et al. [11], cited from earlier work

## CO[C@@H]1COCC[C@@H]1N[C@@H]1CC[C@@](C(=O)N2CCc3ncc(C(F)(F)F)cc3C2)(C(C)C)C1 [MK-0812, reference compound]
[1]
  RT: 92 min

## CCO[C@H]1CN(C2CCC(O)(c3ccc4c(c3)OCO4)CC2)C[C@@H]1NC(=O)CNC(=O)c1cccc(C(F)(F)F)c1 (mixture of isomers) [INCB3344]
[2]
  CCR2 inhibition: approximately 75%
[3]; apoE−/− mice
  size of early and advanced atherosclerotic lesions: failed to decrease
[3]; up to 6 hours after oral infusion, lost at 9 hours
  inflammatory monocyte levels: significantly reduced
